The species entered for data set [1] is Mus musculus. Put plainly: In vitro ability to inhibit mouse allogenic mixed leukocyte response (MLR). It counts as functional.
Data set [2] concerns Rattus norvegicus. Put plainly: (§1) Compound was evaluated in vivo in rat skin allograft by intravenous (iv) administration; toxic. It counts as organism-based.
The subject of data set [3] is Rattus norvegicus. Put plainly: Compound was evaluated in vivo for the immunosuppressive activity following intraperitoneal (ip) administration at a dose of 0.1 mg/Kg. It is filed as functional.
Data set [4] concerns Rattus norvegicus. Put plainly: Compound was evaluated in vivo for the immunosuppressive activity following intraperitoneal (ip) administration at a dose of 0.3 mg/Kg. It is filed as functional.
In data set [5] the test system is Rattus norvegicus. Put plainly: Compound was evaluated in vivo for the immunosuppressive activity following intraperitoneal (ip) administration at a dose of 3 mg/Kg. It is filed as functional.
The test system of data set [6] is Rattus norvegicus. Described as §1. It counts as functional.
The subject of data set [7] is Rattus norvegicus. Put plainly: Compound was evaluated in vivo for the immunosuppressive activity following intraperitoneal (ip) administration at a dose of 1 mg/Kg. It counts as functional.
The subject of data set [8] is Rattus norvegicus. Put plainly: Compound was evaluated in vivo for the immunosuppressive activity following intravenous (iv) administration at a dose of 10 mg/Kg. It counts as functional.
In data set [9] the test system is Rattus norvegicus. Put plainly: Compound was evaluated in vivo for the immunosuppressive activity following intraperitoneal (ip) administration at a dose of 3 mg/kg. It counts as functional.
The subject of data set [10] is Rattus norvegicus. Put plainly: Compound was evaluated in vivo for the immunosuppressive activity following peroral (po) administration at a dose of 3 mg/Kg. It counts as functional.
For data set [11], the system named is Rattus norvegicus. Put plainly: Compound was evaluated in vivo for the immunosuppressive activity following intravenous (iv) administration at a dose of 3 mg/Kg. It is filed as functional.
Data set [12] deals with Rattus norvegicus. Put plainly: Compound was evaluated in vivo in rat skin allograft by intravenous (iv) administration; not toxic. It counts as functional.
The test system of data set [13] is Rattus norvegicus. As to the kind of experiment: Compound was evaluated in vivo for the immunosuppressive activity following peroral (po) administration at a dose of 30 mg/Kg. It counts as functional.
For data set [14], the system named is Rattus norvegicus. Put plainly: Compound was evaluated in vivo for the immunosuppressive activity following peroral (po) administration at a dose of 0.1 mg/Kg. It is filed as functional.
In data set [15] the test system is Rattus norvegicus. Put plainly: Compound was evaluated in vivo for the immunosuppressive activity following intravenous (iv) administration at a dose of 0.1 mg/kg. It is filed as functional.

For `CCCCCCc1ccc(CCCCC(N)(CO)CO)cc1`, 19 nM corresponded to half-maximal inhibition in data set [1] (IC50).

Regarding `CCCCCCCCCCCCCCCC(N)(CO)CO`, the Dose in [2] was determined as 3 mg/kg.

Take `CCCCCCCCCCCCCCC(N)(CO)CO`: the MST in [3] was found to be 12 days; in data set [4] it was 28 days; in data set [5], 45 days; in [7], 40 days. For the same molecule, the Dose in [6] was determined as 10 mg/kg.

Consider `CCCCCCCCCCc1ccc(C(N)(CO)CO)cc1`, for which the IC50 (in general, the concentration that inhibits the measured activity by half) in [1] came to 13 nM.

`CCCCCCCc1ccc(CCCC(N)(CO)CO)cc1`: half-maximal inhibition in data set [1] (IC50) required 350 nM.

`CCCCCCCCCc1ccc(CCC(N)(CO)CO)cc1` displayed an IC50 in [1] of 8.5 nM.

For `CCc1ccc(CCCCCCCCC(N)(CO)CO)cc1`, the 50% inhibitory concentration (IC50) in [1] worked out at 32 nM.

Take `CCCCc1ccc(CCCCCCC(N)(CO)CO)cc1`: in data set [1], the IC50 came to 100 nM.

On to `CCCCCCCCCc1ccc(CC(N)(CO)CO)cc1`, for which the half-maximal inhibitory concentration (IC50) in [1] was 70 nM.

The molecule `NC(CO)(CO)CCCCCCCCCCc1ccccc1` registered an IC50 in data set [1] of 54 nM.

Regarding `CCCCCCCCc1ccc(CCC(N)(CO)CO)cc1` [FINGOLIMOD], the MST worked out at 32 days in [3]; 53.5 days in data set [8]; 60 days in data set [9]; 41 days in data set [10]; 36 days in [4]; 46.3 days in data set [11]. In addition, the MST in data set [13] worked out at 57.8 days; in data set [14] it was 19.3 days; in data set [15] it was 24.8 days; in [7] it was 45 days. In [12], the Dose was 10 mg/kg.

Source of the values: ChEMBL document CHEMBL1128879, “Design, synthesis, and structure-activity relationships of 2-substituted-2-amino-1,3-propanediols: Discovery of a novel immunosuppressant, FTY720” (Bioorg Med Chem Lett, 1995).
